Usually IC50 stands for the concentration that inhibits the measured activity by half.

The text below walks through data of patent publication US10968203B2, “Pyrimidinyl-pyridyloxy-naphthyl compounds and methods of treating IRE1-related diseases and disorders” (Genentech, Inc., priority 2017, dated 2021).

The test concerns XBP1s-luc 293 LUC. Description: cellular PD assay, XBP1s-LUC reporter (Example 903). It is filed as cell-based. Conditions: read-out: XBP1s-luc 293 LUC (IC50). In a few lines:
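Cellular IRE1α pathway activity was quantified from the luciferase signal of an XBP1-Luc reporter, where the luciferase fusion is in frame and expressed only from the spliced XBP1 transcript.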

Structures can show the parent of a compound that is named as a salt. Where two headings read alike, the source gives them in different places.

For `Cc1ccc2c(NC[C@@H](O)CF)cccc2c1Oc1ncccc1-c1ccnc(N[C@H]2CCCNC2)n1` (single isomer, unassigned) [Example 334], the IC50 (Table 1) came to 89.7 nM.
On to `Cc1ccc2c(NS(=O)(=O)CF)cccc2c1Oc1ncccc1-c1ccnc(N[C@H]2CCCNC2)n1` [Example 159, (S)-1-Fluoro-N-(6-methyl-5-(3-(2-(piperidin-3-ylamino)pyrimidin-4-yl)pyridin-2-yloxy)naphthalen-1-yl)methanesulfonamide], for which the IC50 (Table 1) stood at 174 nM.
Consider `Cc1ccc2c(NS(=O)(=O)CCC(F)(F)F)cccc2c1Oc1ncccc1-c1ccnc(N[C@H]2CCCNC2)n1` [Example 123, (S)-3,3,3-Trifluoro-N-(6-methyl-5-((3-(2-(piperidin-3-ylamino)pyrimidin-4-yl)pyridin-2-yl)oxy)naphthalen-1-yl)propane-1-sulfonamide hydrochloride], for which the IC50 (Table 1) is 84 nM.
On to `Cc1ccc2c(NCCC(C)O)cccc2c1Oc1ncccc1-c1ccnc(N[C@H]2CCCNC2)n1` (mixture of isomers) [Example 390, 4-((6-Methyl-5-((3-(2-((S)-piperidin-3-ylamino)pyrimidin-4-yl)pyridin-2-yl)oxy)naphthalen-1-yl)amino)butan-2-ol], for which, for the setting “Table 1”, the IC50 stood at 143 nM.
For `Cc1ccc2c(NS(=O)(=O)CCC(F)(F)F)cccc2c1Oc1ncccc1-c1ccnc(N[C@@H]2CNC[C@H](C)C2)n1` [Example 481, 3,3,3-Trifluoro-N-(6-methyl-5-((3-(2-(((3S,5R)-5-methylpiperidin-3-yl)amino)pyrimidin-4-yl)pyridin-2-yl)oxy)naphthalen-1-yl)propane-1-sulfonamide], under “Table 2”, the half-inhibitory concentration (IC50) was 70 nM.
In the case of `Cc1ccc2c(NCC[C@H]3CC3(F)F)cccc2c1Oc1ncccc1-c1ccnc(N[C@H]2CCCNC2)n1` (single isomer, unassigned) [Example 292], the concentration for half-maximal inhibition (IC50) (Table 1) stood at 294 nM.
Consider `CCCS(=O)(=O)Nc1cccc2c(Oc3ncc(CC)cc3-c3ccnc(N[C@H]4CCCNC4)n3)c(C)ccc12` [Example 259, (S)—N-(5-((5-ethyl-3-(2-(piperidin-3-ylamino)pyrimidin-4-yl)pyridin-2-yl)oxy)-6-methylnaphthalen-1-yl)propane-1-sulfonamide], for which, where the note is “Table 1”, the IC50 is 361 nM.
Consider `Cc1nc(CNc2cccc3c(Oc4ncccc4-c4ccnc(N[C@H]5CCCNC5)n4)c(C)ccc23)c(C)s1` [Example 294, (S)-4-(2-((5-(((2,5-Dimethylthiazol-4-yl)methyl)amino)-2-methylnaphthalen-1-yl)oxy)pyridin-3-yl)-N-(piperidin-3-yl)pyrimidin-2-amine], for which the IC50 (Table 1) stood at 241 nM.
Regarding `CO[C@@H](CNc1cccc2c(Oc3ncccc3-c3ccnc(N[C@H]4CCCNC4)n3)c(C)ccc12)C(F)(F)F` [Example 326, 4-(2-((2-Methyl-5-(((S)-3,3,3-trifluoro-2-methoxypropyl)amino)naphthalen-1-yl)oxy)pyridin-3-yl)-N—((S)-piperidin-3-yl)pyrimidin-2-amine], where the note is “Table 1”, the half-maximal inhibitory concentration (IC50) came to 28.4 nM.
On to `Cc1ccc2c(NC[C@H](C)C#N)cccc2c1Oc1ncccc1-c1ccnc(N[C@H]2CCCNC2)n1` (single isomer, unassigned) [Example 415, hydrochloride], for which the IC50 (Table 2) worked out at 269 nM.
As to `CO[C@H]1CNC[C@@H](Nc2nccc(-c3cccnc3Oc3c(C)ccc4c(NS(=O)(=O)Cc5ccccc5)cccc34)n2)C1` [Example 161, N-(5-((3-(2-(((3S,5R)-5-Methoxypiperidin-3-yl)amino)pyrimidin-4-yl)pyridin-2-yl)oxy)-6-methylnaphthalen-1-yl)-1-phenylmethanesulfonamide], the IC50 (Table 1) worked out at 46 nM.
Consider `Cc1ccc2c(NS(=O)(=O)C3CCC3)cccc2c1Oc1ncccc1-c1ccnc(N[C@H]2CCCNC2)n1` [Example 107, (S)—N-(6-Methyl-5-((3-(2-(piperidin-3-ylamino)pyrimidin-4-yl)pyridin-2-yl)oxy)naphthalen-1-yl)cyclobutanesulfonamide hydrochloride], for which the IC50 (Table 1) was found to be 252 nM.
As to `Cc1ccc2c(NC(=O)CC3CCCCC3)c(F)ccc2c1Oc1ncccc1-c1ccnc(N[C@H]2CCCNC2)n1` [Example 364, (S)-2-Cyclohexyl-N-(2-fluoro-6-methyl-5-((3-(2-(piperidin-3-ylamino)pyrimidin-4-yl)pyridin-2-yl)oxy)naphthalen-1-yl)acetamide], the concentration for half-maximal inhibition (IC50) (Table 1) amounted to 216 nM.
For the compound `CCC(C)S(=O)(=O)Nc1cccc2c(Oc3ncccc3-c3ccnc(N[C@H]4CCCNC4)n3)c(C)ccc12` (mixture of isomers) [Example 134, N-(6-Methyl-5-((3-(2-((S)-piperidin-3-ylamino)pyrimidin-4-yl)pyridin-2-yl)oxy)naphthalen-1-yl) butane-2-sulfonamide], the IC50 (Table 1) is 260 nM.
`Cc1ccc2c(NS(=O)(=O)CCC(C)(F)F)c(F)ccc2c1Oc1ncccc1-c1ccnc(N[C@H]2CCCNC2)n1` [Example 442, (S)-3,3-Difluoro-N-(2-fluoro-6-methyl-5-((3-(2-(piperidin-3-ylamino)pyrimidin-4-yl)pyridin-2-yl)oxy)naphthalen-1-yl)butane-1-sulfonamide hydrochloride]: the half-maximal inhibitory concentration (IC50) (Table 2) was 40 nM.
For `CCCS(=O)(=O)Nc1cccc2c(Oc3ncc(OC)cc3-c3ccnc(N[C@H]4CCCNC4)n3)c(C)ccc12` [Example 424, (S)—N-(5-((5-Methoxy-3-(2-(piperidin-3-ylamino)pyrimidin-4-yl)pyridin-2-yl)oxy)-6-methylnaphthalen-1-yl)propane-1-sulfonamide hydrochloride], the IC50 (Table 2) was found to be 392 nM.
In the case of `Cc1ccc2c(NC(=O)CC3(C)CCCCC3)cccc2c1Oc1ncccc1-c1ccnc(N[C@H]2CCCNC2)n1` [Example 264, (S)—N-(6-Methyl-5-((3-(2-(piperidin-3-ylamino)pyrimidin-4-yl)pyridin-2-yl)oxy)naphthalen-1-yl)-2-(1-methylcyclohexyl)acetamide hydrochloride], the IC50 (Table 1) worked out at 350 nM.
For the compound `Cc1ccc2c(NC(=O)[C@@H]3CC34CCCC4)cccc2c1Oc1ncccc1-c1ccnc(N[C@H]2CCCNC2)n1` (single isomer, unassigned) [Example 254], the IC50 (Table 1) amounted to 69 nM.
On to `Cc1ccc2c(NC(=O)[C@H]3CC34CCC4)c(F)ccc2c1Oc1ncccc1-c1ccnc(N[C@H]2CCCNC2)n1` (single isomer, unassigned) [Example 386], for which the IC50 (Table 1) is 280 nM.
On to `Cc1ccc2c(NC[C@@H](O)C(F)(F)F)cccc2c1Oc1ncccc1-c1ccnc(N[C@H]2CCCNC2)n1` [Example 298, (R)-1,1,1-Trifluoro-3-((6-methyl-5-((3-(2-((S)-piperidin-3-ylamino)pyrimidin-4-yl)pyridin-2-yl)oxy)naphthalen-1-yl)amino)propan-2-ol], for which, for the setting “Table 1”, the IC50 stood at 67.2 nM.
For `Cc1ccc2c(NC(=O)[C@@H]3C[C@H]3F)cccc2c1Oc1ncccc1-c1ccnc(N[C@H]2CCCNC2)n1` [Example 236, (1S,2R)-2-Fluoro-N-(6-methyl-5-((3-(2-(((S)-piperidin-3-yl)amino)pyrimidin-4-yl)pyridin-2-yl)oxy)naphthalen-1-yl)cyclopropane-1-carboxamide], the half-inhibitory concentration (IC50) (Table 1) came to 174 nM.
On the same count and under the same terms, the figure for `CCC(=O)Nc1cccc2c(Oc3ncccc3-c3ccnc(N[C@H]4CCCNC4)n3)c(C)ccc12` [Example 173, (S)—N-(6-Methyl-5-((3-(2-(piperidin-3-ylamino)pyrimidin-4-yl)pyridin-2-yl)oxy)naphthalen-1-yl)propionamide] is 226 nM; for `Cc1ccc2c(NC(=O)Cc3cccc(F)c3)cccc2c1Oc1ncccc1-c1ccnc(N[C@H]2CCCNC2)n1` [Example 193, (S)-2-(3-Fluorophenyl)-N-(6-methyl-5-((3-(2-(piperidin-3-ylamino)pyrimidin-4-yl)pyridin-2-yl)oxy)naphthalen-1-yl)acetamide] it is 86 nM; for `Cc1ccc2c(NC(=O)c3cn(C)cn3)cccc2c1Oc1ncccc1-c1ccnc(N[C@H]2CCCNC2)n1` [Example 176, (S)-1-Methyl-N-(6-methyl-5-((3-(2-(piperidin-3-ylamino)pyrimidin-4-yl)pyridin-2-yl)oxy)naphthalen-1-yl)-1H-imidazole-4-carboxamide] it is 368 nM.
As to `CCc1nc(CNc2cccc3c(Oc4ncccc4-c4ccnc(N[C@H]5CCCNC5)n4)c(C)ccc23)cs1` [Example 345, (S)-4-(2-((5-(((2-Ethylthiazol-4-yl)methyl)amino)-2-methylnaphthalen-1-yl)oxy)pyridin-3-yl)-N-(piperidin-3-yl)pyrimidin-2-amine], the IC50 (Table 1) stood at 171 nM.
Take `Cc1ccc2c(Oc3ncccc3-c3ccnc(N[C@H]4CCCNC4)n3)c(C)ccc2c1NC(=O)C1CC1` [Example 284, (S)—N-(2,6-Dimethyl-5-((3-(2-(piperidin-3-ylamino)pyrimidin-4-yl)pyridin-2-yl)oxy)Naphthalen-1-yl)cyclopropanecarboxamide]: the IC50 (Table 1) turned out to be 98.2 nM.
In the case of `Cc1ccc2c(NS(=O)(=O)Cc3nn(C)cc3Cl)c(F)ccc2c1Oc1ncccc1-c1ccnc(N[C@H]2CCCNC2)n1` [Example 448, 1-(4-Chloro-1-methyl-pyrazol-3-yl)-N-[2-fluoro-6-methyl-5-[[3-[2-[[(3S)-3-piperidyl]amino]pyrimidin-4-yl]-2-pyridyl]oxy]-1-naphthyl]methanesulfonamide hydrochloride], the IC50 (Table 2) is 19 nM.
Turning to `Cc1ccc2c(NC(=O)[C@@H]3CCC(F)(F)C3)cccc2c1Oc1ncccc1-c1ccnc(N[C@H]2CCCNC2)n1` (single isomer, unassigned) [Example 269], the IC50 (Table 1) turned out to be 336 nM.
Turning to `Cc1ccc2c(NC(=O)C3CC3)c(F)ccc2c1Oc1ncccc1-c1ccnc(N[C@H]2CCCNC2)n1` [Example 271, (S)—N-(2-Fluoro-6-methyl-5-((3-(2-(piperidin-3-ylamino)pyrimidin-4-yl)pyridin-2-yl)oxy)naphthalen-1-yl)cyclopropanecarboxamide], the IC50 (Table 1) came to 271 nM.
As for `Cc1ccc2c(NC[C@H]3CCOC3)cccc2c1Oc1ncccc1-c1ccnc(N[C@H]2CCCNC2)n1` (single isomer, unassigned) [Example 352], where the note is “Table 1”, the concentration for half-maximal inhibition (IC50) turned out to be 499 nM.
